ChEMBL document CHEMBL1141961, “Identification of coumarin derivatives as a novel class of allosteric MEK1 inhibitors” (Bioorg Med Chem Lett, 2005)
The source made the active and inactive calls. The rule behind the calls is not given here.

Experiments:
[1] = molecular target: T1, Dual specificity mitogen-activated protein kinase kinase 1 (Homo sapiens, UniProt Q02750); test: Inhibition of activated human MEK1 in MEK-ERK coupling assay at 10 uM
[2] = Inhibition of LPS-induced TNFalpha production in human monocyte THP1 cells; format: functional, cell-based; conditions: THP-1
[3] = molecular target: T1, Dual specificity mitogen-activated protein kinase kinase 1; test: Inhibition of ERK phosphorylation in THP1 cells; format: functional, cell-based; conditions: THP-1
[4] = Inhibition of human MEK1 activation by COT in COT-MEK-ERK coupling assay
[5] = molecular target: T1, Dual specificity mitogen-activated protein kinase kinase 1; test: Inhibition of human MEK1 activation by bRaf in RAF-MEK-ERK coupling assay
[6] = molecular target: T1, Dual specificity mitogen-activated protein kinase kinase 1; test: Inhibition of activated human MEK1 in MEK-ERK coupling assay

T1 sequence (Q02750 whole entry): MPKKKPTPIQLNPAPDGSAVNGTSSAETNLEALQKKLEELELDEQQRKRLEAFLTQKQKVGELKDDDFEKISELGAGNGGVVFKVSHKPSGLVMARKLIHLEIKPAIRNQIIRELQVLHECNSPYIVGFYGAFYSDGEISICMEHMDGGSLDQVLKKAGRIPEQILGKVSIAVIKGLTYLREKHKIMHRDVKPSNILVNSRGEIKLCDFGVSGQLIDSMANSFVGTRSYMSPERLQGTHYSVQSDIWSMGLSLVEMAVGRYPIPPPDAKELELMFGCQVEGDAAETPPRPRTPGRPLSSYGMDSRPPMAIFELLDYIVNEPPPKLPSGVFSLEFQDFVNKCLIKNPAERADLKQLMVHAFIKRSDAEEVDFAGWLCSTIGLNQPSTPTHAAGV

Row | Compound | Activity [1] | IC50 [2] [µM] | Activity [3] | IC50 [4] [µM] | IC50 [5] [µM] | IC50 [6] [µM]
1 | Cc1c(Cc2ccc(F)cc2)c(=O)oc2cc(OC(=O)N(C)C)ccc12 | inactive | 0.2 | Active | 0.3 | 0.3 | 
2 | Cc1c(Cc2ccccc2)c(=O)oc2cc(OC(=O)C3CC3)ccc12 | inactive |  |  | 0.2 | 0.2 | 
3 | Cc1c(Cc2ccccc2)c(=O)oc2cc(OC(=O)N(C)C)c(Cl)cc12 |  | 0.09 | Active | 0.07 |  | 10
